Reference: patent US8066985B2, “Reovirus for the treatment of cellular proliferative disorders” (Oncolytics Biotech Inc., priority 1999, dated 2011)
Entries after “also recorded” stand apart in the source; their conditions may differ.

How the values were obtained:
NIH 3T3 cells = assay: 2-aminopurine effect on viral protein synthesis; type: cell-based, mouse; conditions: 5 mM, concurrently with reovirus; label 12 to 48 h postinfection
Procedure: To test this idea, 2-aminopurine was used. […] Accordingly, NIH 3T3 cells were exposed to 5 mM 2-aminopurine concurrently with exposure to reovirus. The cells were labeled with [^35S]methionine from 12 to 48 h postinfection, and lysates were harvested and analyzed by SDS-PAGE.

H-Ras-transformed cells = assay: PD98059 effect on reovirus protein synthesis; type: cell-based; conditions: 50 μM, MOI approximately 10 p.f.u./cell, label 12 to 48 hours
Procedure: (§1) H-Ras-transformed cells were grown to 80% confluency and infected with reovirus at an MOI of approximately 10 p.f.u./cell. PD98059 (Calbiochem), dissolved in dimethylsulfoxide (DMSO), was applied to the cells at the same time as the virus (final concentration of PD98059 was 50 μM). The control cells received an equivalent volume of DMSO. The cells were labeled with ^35S-methionine from 12 to 48 hours post-infection. Lysates were then prepared, immunoprecipitated with the polyclonal anti-reovirus serotype 3 serum and analyzed by SDS-PAGE.

ERK1/2 phosphorylation = assay: PD98059 effect on ERK1/2 phosphorylation; type: cell-based; conditions: 50 μM
Text: The PhosphoPlus p44/42 MAP kinase (Thr202/Tyr204) Antibody kit (New England Biolabs) was used for the detection of MAP kinase in cell lysates according to the manufacturer's instructions. Briefly, subconfluent monolayer cultures were lysed with the recommended SDS-containing sample buffer, and subjected to SDS-PAGE, followed by electroblotting onto nitrocellulose paper. The membrane was then probed with the primary antibody (anti-total MAPK or anti-phospho-MAPK), followed by the horseradish peroxidase (HRP)-conjugated secondary antibody as described in the manufacturer's instruction manual.
as §1
As expected, PD98059 had no effect on reovirus-induced PKR phosphorylation in untransformed NIH-3T3 cells (data not shown).

PKR = assay: PD98059 effect on PKR phosphorylation; type: cell-based

| SMILES | level of viral protein synthesis (NIH 3T3 cells) | effect on viral protein synthesis (H-Ras-transformed cells) | inhibition of reovirus protein synthesis (H-Ras-transformed cells) | ERK1/2 phosphorylation (ERK1/2 phosphorylation) | PKR phosphorylation state (PKR; infected H-Ras-transformed cells, 50 μM) | effect on reovirus-induced PKR phosphorylation (PKR; untransformed NIH-3T3 cells) |
| --- | --- | --- | --- | --- | --- | --- |
| Nc1ncc2[nH]cnc2n1 [2-aminopurine] | significantly higher level of viral protein synthesis; also recorded: drastic enhancement of reovirus protein synthesis | – | – | – | – | – |
| COc1cccc(-c2cc(=O)c3ccccc3o2)c1N [PD98059] | – | slight enhancement of viral protein synthesis | did not inhibit reovirus protein synthesis | effectively inhibited ERK1/2 phosphorylation | remained unphosphorylated | no effect |
